According to paper PMC7724679, “Identification of Repurposable Drugs and Adverse Drug Reactions for Various Courses of COVID-19 Based on Single-Cell RNA Sequencing Data” (ArXiv, 2020):

Legend:
Assay type in all cases: cell-based
[1] = test system: Influenza A virus (IAV, Puerto Rico/8/1934(H1N1)); experiment: Antiviral assay, IAV viral RNA in supernatant by RT-qPCR, Calu-3 cells; details: for IC50: read-out: IC50, antiviral activity against IAV
Calu-3 cells = experiment: Drug-induced cytotoxicity, CCK-8, Calu-3 cells; details: 24 h
Protocol: (§1) The drug-induced cytotoxicity of the test drugs (tyrphostin-AG-1478 and brefeldin-a) on Calu-3 and Vero E6 cells was determined by a cell counting kit 8 (CCK-8, APExBIO). Cells were cultured overnight in 96-well cell-culture Petri dishes at a density of 1 × 10^4 cells/well. A 10 mM stock of drug was serially diluted in 100% DMSO to obtain a 10-point dilution series. Plates were cultured with fresh drug-containing medium at 37°C for 24 h. The DMSO concentration remained constant under all conditions at 0.05%. The absorbance of each well was determined by using a 96-well multiscanner. After subtracting background absorption, the results were expressed as a percentage of viability relative to that of control cultures that received no drug. Drug concentrations that inhibited cell viability by 50% (IC50) were determined by using GraphPad Prism 8 software.

Vero E6 cells = experiment: Drug-induced cytotoxicity, CCK-8, Vero E6 cells; details: 24 h
Protocol: as §1

[2] = test system: mRNA levels of MX1, ISG15, IFNB1, ACE2; experiment: Cellular mRNA levels by qPCR in IAV-infected Calu-3 cells; details: IAV-infected Calu-3 cells (MOI of 1), 0 to 10 μM
[3] = test system: Influenza A virus (IAV, Puerto Rico/8/1934(H1N1)); experiment: Antiviral assay, IAV viral RNA in supernatant by RT-qPCR, Vero E6 cells; details: for IC50: read-out: IC50, antiviral activity against IAV

C[C@H]1CCC/C=C/[C@@H]2C[C@H](O)C[C@H]2[C@H](O)/C=C/C(=O)O1 [Brefeldin-a]
IAV viral RNA levels in cell culture supernatant [1]: reduced IAV viral RNA levels dose dependently | IC50 ([1]; Influenza A virus, H1N1 / PR8, Calu-3): 0.059 µM | cytotoxicity (cell viability) (Calu-3 cells): Neither compound caused significant cytotoxicity | cytotoxicity (cell viability) (Vero E6 cells): slightly reduced viability | ACE2 mRNA level [2]: significantly reduced | IFNβ (IFNB1) mRNA level [2]: significantly reduced | ISG15 mRNA level [2]: significantly reduced | MX1 mRNA level [2]: significantly reduced | IAV viral RNA levels in cell culture supernatant [3]: reduced IAV viral RNA levels dose dependently | IC50 ([3]; Influenza A virus, H1N1 / PR8, Vero C1008): 0.246 µM

COc1cc2ncnc(Nc3cccc(Cl)c3)c2cc1OC [Tyrphostin-AG-1478]
IAV viral RNA levels in cell culture supernatant [1]: reduced IAV viral RNA levels dose dependently | IC50 [1]: 0.043 µM | cytotoxicity (cell viability) (Calu-3 cells): Neither compound caused significant cytotoxicity | cytotoxicity (cell viability) (Vero E6 cells): Neither compound caused significant cytotoxicity | ACE2 mRNA level [2]: increased | IFNβ (IFNB1) mRNA level [2]: elevated | ISG15 mRNA level [2]: elevated | MX1 mRNA level [2]: elevated | IAV viral RNA levels in cell culture supernatant [3]: reduced IAV viral RNA levels dose dependently | IC50 [3]: 0.053 µM
